Test results: patent US8293909B2, “Compounds for the treatment of hepatitis C” (Bristol-Myers Squibb Company, priority 2008, dated 2012)
pEC50, pIC50: −log10 of the molar value.

Key:
[1] = target: T1, HCV NS5B RdRp genotype 1b (Hepatitis C virus genotype 1b, UniProt Q9WMX2); assay: HCV NS5B RdRp enzyme assay (standard / modified); assay type: biochemical; conditions: HCV NS5B genotype 1b
T1 construct: The protein was expressed with an 18 amino acid C-terminal truncation to enhance the solubility; made in house; host or cells: E. coli BL21(DE3), pET21a vector
Protocol: HCV NS5B RdRp cloning, expression, and purification. The cDNA encoding the NS5B protein of HCV, genotype 1b, was cloned into the pET21a expression vector. The protein was expressed with an 18 amino acid C-terminal truncation to enhance the solubility. The E. coli competent cell line BL21(DE3) was used for expression of the protein. Cultures were grown at 37° C. for ˜4 hours until the cultures reached an optical density of 2.0 at 600 nm. The cultures were cooled to 20° C. and induced with 1 mM IPTG. Fresh ampicillin was added to a final concentration of 50 μg/ml and the cells were grown overnight at 20° C.
Cell pellets (3 L) were lysed for purification to yield 15-24 mgs of purified NS5B. The lysis buffer consisted of 20 mM Tris-HCl, pH 7.4, 500 mM NaCl, 0.5% triton X-100, 1 mM DTT, 1 mM EDTA, 20% glycerol, 0.5 mg/ml lysozyme, 10 mM MgCl2, 15 ug/ml deoxyribonuclease I, and Complete™ protease inhibitor tablets (Roche). After addition of the lysis buffer, frozen cell pellets were resuspended using a tissue homogenizer. To reduce the viscosity of the sample, aliquots of the lysate were sonicated on ice using a microtip attached to a Branson sonicator. The sonicated lysate was centrifuged at 100,000×g for 1 hr at 4° C. and filtered through a 0.2 μm filter unit (Corning).
The protein was purified using three sequential chromatography steps: Heparin sepharose CL-6B, polyU sepharose 4B, and Hitrap SP sepharose (Pharmacia). The chromatography buffers were identical to the lysis buffer but contained no lysozyme, deoxyribonuclease I, MgCl2 or protease inhibitor and the NaCl concentration of the buffer was adjusted according to the requirements for charging the protein onto the column. Each column was eluted with a NaCl gradient which varied in length from 5-50 column volumes depending on the column type. After the final chromatography step, the resulting purity of the enzyme is >90% based on SDS-PAGE analysis. The enzyme was aliquoted and stored at −80° C.
Standard HCV NS5B RdRp enzyme assay. HCV RdRp genotype 1b assays were run in a final volume of 60 μl in 96 well plates (Costar 3912). The assay buffer is composed of 20 mM Hepes, pH 7.5, 2.5 mM KCl, 2.5 mM MgCl2, 1 mM DTT, 1.6 U RNAse inhibitor (Promega N2515), 0.1 mg/ml BSA (Promega R3961), and 2% glycerol. All compounds were serially diluted (3-fold) in DMSO and diluted further in water such that the final concentration of DMSO in the assay was 2%. HCV RdRp genotype 1b enzyme was used at a final concentration of 28 nM. A polyA template was used at 6 nM, and a biotinylated oligo-dT12 primer was used at 180 nM final concentration. Template was obtained commercially (Amersham 27-4110). Biotinylated primer was prepared by Sigma Genosys. 3H-UTP was used at 0.6 μCi (0.29 μM total UTP). Reactions were initiated by the addition of enzyme, incubated at 30° C. for 60 min, and stopped by adding 25 μl of 50 mM EDTA containing SPA beads (4 μg/μl, Amersham RPNQ 0007). Plates were read on a Packard Top Count NXT after >1 hr incubation at room temperature.
Modified HCV NS5B RdRp enzyme assay. A modified enzyme assay was performed essentially as described for the standard enzyme assay except for the following: The biotinylated oligo dT12 primer was precaptured on streptavidin-coated SPA beads by mixing primer and beads in assay buffer and incubating at room temperature for one hour. Unbound primer was removed after centrifugation. The primer-bound beads were resuspended in 20 mM Hepes buffer, pH 7.5 and used in the assay at final concentrations of 20 nM primer and 0.67 μg/μl beads. Order of addition in the assay: enzyme (14 nM) was added to diluted compound followed by the addition of a mixture of template (0.2 nM), 3H-UTP (0.6 μCi, 0.29 μM), and primer-bound beads, to initiate the reaction; concentrations given are final. Reactions were allowed to proceed for 4 hours at 30° C.
IC50 values for compounds were determined using seven different [I]. […]

HCV replicon cells = assay: HCV replicon assay (FRET or luciferase readout); assay type: cell-based; conditions: Hepatitis C virus
Text: FRET Assay Preparation. To perform the HCV FRET screening assay, 96-well cell culture plates were used. The FRET peptide (Anaspec, Inc.) (Taliani et al., Anal. Biochem. 1996, 240, 60-67) contains a fluorescence donor, EDANS, near one end of the peptide and an acceptor, DABCYL, near the other end. The fluorescence of the peptide is quenched by […] resonance energy transfer (RET) between the donor and the acceptor, but as the NS3 protease cleaves the peptide the products are released from RET quenching and the fluorescence of the donor becomes apparent. The assay reagent was made as follows: 5× cell Luciferase cell culture lysis reagent from Promega (#E153A) diluted to 1× with dH2O, NaCl added to 150 mM final, the FRET peptide diluted to 20 μM final from a 2 mM stock.
To prepare plates, HCV replicon cells, with or without a Renilla luciferase reporter gene, were trypsinized and placed into each well of a 96-well plate with titrated test compounds added in columns 3 through 12; columns 1 and 2 contained a control compound (HCV protease inhibitor), and the bottom row contained cells without compound. The plates were then placed in a CO2 incubator at 37° C.
Assays. Subsequent to addition of the test compounds described above (FRET Assay Preparation), at various times the plate was removed and Alamar blue solution (Trek Diagnostics, #00-100) was added per well as a measure of cellular toxicity. After reading in a Cytoflour 4000 instrument (PE Biosystems), plates were rinsed with PBS and then used for FRET assay by the addition of 30 ul of the FRET peptide assay reagent described above (FRET Assay Preparation) per well. The plate was then placed into the Cytoflour 4000 instrument which had been set to 340 excite/490 emission, automatic mode for 20 cycles and the plate read in a kinetic mode. Typically, the signal to noise using an endpoint analysis after the reads was at least three-fold. Alternatively, after Alamar blue reading, plates were rinsed with PBS, 50 ul of DMEM (high glucose) without phenol red was added and plates were then used for luciferase assay using the Promega Dual-Glo Luciferase Assay System.
Compound analysis was determined by quantification of the relative HCV replicon inhibition and the relative cytotoxicity values. To calculate cytoxicity values, the average Alamar Blue fluorescence signals from the control wells were set as 100% non-toxic. The individual signals in each of the compound test wells were then divided by the average control signal and multiplied by 100% to determine […]. To calculate the HCV replicon inhibition values, an average background value was obtained from the two wells containing the highest amount of HCV protease inhibitor at the end of the assay period. These numbers were similar to those obtained from naïve Huh-7 cells.
The background numbers were then subtracted from the average signal obtained from the control wells and this number was used as 100% activity. The individual signals in each of the compound test wells were then divided by the averaged control values after background subtraction and multiplied by 100% to determine percent activity. EC50 values for a protease inhibitor titration were calculated as the concentration which caused a 50% reduction in FRET or luciferase activity. The two numbers generated for the compound plate, percent cytoxicity and percent activity were used to determine compounds of interest for further analysis.

T1 sequence (Q9WMX2 2420-2992): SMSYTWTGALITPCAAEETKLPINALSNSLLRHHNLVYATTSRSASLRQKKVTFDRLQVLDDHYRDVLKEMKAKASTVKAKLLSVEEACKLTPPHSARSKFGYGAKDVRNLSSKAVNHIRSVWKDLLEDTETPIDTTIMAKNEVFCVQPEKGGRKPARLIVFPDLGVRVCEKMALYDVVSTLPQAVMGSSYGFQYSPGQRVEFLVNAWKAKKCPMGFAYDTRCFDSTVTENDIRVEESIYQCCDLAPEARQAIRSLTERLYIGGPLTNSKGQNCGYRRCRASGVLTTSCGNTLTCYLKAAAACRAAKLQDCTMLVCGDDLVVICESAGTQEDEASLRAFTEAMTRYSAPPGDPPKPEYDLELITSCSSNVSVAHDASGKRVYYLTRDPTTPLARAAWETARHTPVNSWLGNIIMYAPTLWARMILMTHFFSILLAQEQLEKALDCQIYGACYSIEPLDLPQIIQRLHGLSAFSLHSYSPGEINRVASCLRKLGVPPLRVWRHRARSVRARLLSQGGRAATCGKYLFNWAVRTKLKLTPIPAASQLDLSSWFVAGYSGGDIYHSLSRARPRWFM

CNC(=O)c1c2cc(-c3cccc(C(=O)NC4(c5ccccn5)CC4)c3)ccc2nn1-c1ccc(F)cc1
pIC50 ([1]; Table 1): 5.00 to 6.00
pEC50 (HCV replicon cells; Table 1): 5.00 to 6.00

CNC(=O)c1c(-c2ccc(F)cc2)sc2ccc(-c3cccc(C(=O)NC(C)(C)c4ccccc4)c3)cc12
pIC50 ([1]; Table 1): 6.60 to 8.70
pEC50 (HCV replicon cells; Table 1): 6.00 to 6.60

CCN(c1cn2nc(-c3ccc(F)cc3)c(C(=O)NC)c2cc1-c1cc(C(=O)NC2(c3ccccn3)CC2)ccc1C)S(C)(=O)=O
pIC50 ([1]; Table 1): 6.60 to 8.70
pEC50 (HCV replicon cells; Table 1): 6.60 to 8.70

CCN(c1cn2nc(-c3ccc(F)cc3)c(C(=O)NC)c2cc1C1CC1)S(C)(=O)=O
pIC50 ([1]; Table 1): 6.60 to 8.70
pEC50 (HCV replicon cells; Table 1): 6.60 to 8.70

CCc1ccccc1-c1ccc2c(C(=O)NC)c(-c3ccccc3)nn2c1
pIC50 ([1]; Table 1): < 5.00
pEC50 (HCV replicon cells; Table 1): < 5.00

CNC(=O)c1c(-c2ccc(F)cc2)nc2ccc(-c3cccc(C(=O)NC(C)(C)C)c3)cn12 [drawing 77]
pIC50 ([1]; Table 1): 6.00 to 6.60
pEC50 (HCV replicon cells; Table 1): 6.00 to 6.60

CNC(=O)c1c(-c2ccc(F)cc2)nn2cc(NC(=O)OC(C)(C)C)ccc12
pIC50 ([1]; Table 1): < 5.00
pEC50 (HCV replicon cells; Table 1): < 5.00

CNC(=O)c1c(-c2ccc(F)cc2)sc2ccc(-c3cccc(C(=O)NC4(c5ccccc5)CCC4)c3)cc12
pIC50 ([1]; Table 1): 6.60 to 8.70
pEC50 (HCV replicon cells; Table 1): 6.60 to 8.70

CNC(=O)c1c(-c2ccc(F)cc2)nc2ccc(-c3cc(C(=O)NC(C)(C)c4ccccc4)ccc3OC)cn12
pIC50 ([1]; Table 1): 6.60 to 8.70
pEC50 (HCV replicon cells; Table 1): 6.60 to 8.70

CNC(=O)c1c(-c2ccc(F)cc2)nn2ccc(-c3cc(C(=O)NC4(c5nc(C)no5)CC4)ccc3C)c(F)c12
pIC50 ([1]; Table 1): 5.00 to 6.00
pEC50 (HCV replicon cells; Table 1): < 5.00

CNC(=O)c1c(-c2ccc(F)cc2)nn2cc(-c3cccc(OC)c3)ccc12
pIC50 ([1]; Table 1): < 5.00
pEC50 (HCV replicon cells; Table 1): < 5.00

CCN(c1cn2nc(-c3ccc(F)cc3)c(C(=O)NC)c2cc1-c1cccc(C(=O)NC(C)(C)c2ccccc2)c1)S(C)(=O)=O [drawing 176]
pIC50 ([1]; Table 2): 8.02
pEC50 (HCV replicon cells; Table 2): 8.22

CNC(=O)c1c(-c2ccc(F)cc2)nn2ccc(-c3cc(C(=O)NC4(c5ccccc5)CCC4)ccc3C)cc12
pIC50 ([1]; Table 1): 6.60 to 8.70
pEC50 (HCV replicon cells; Table 1): 6.60 to 8.70

CNC(=O)c1c(-c2ccc(F)cc2)nn2ccc(-c3cccc(C(=O)NC4(c5ccccc5)CC4)c3)cc12
pIC50 ([1]; Table 1): 6.60 to 8.70
pEC50 (HCV replicon cells; Table 1): 6.60 to 8.70

CNC(=O)c1c(-c2ccc(F)cc2)nn2cc(-c3ccc(OC)cc3)ccc12
pIC50 ([1]; Table 1): < 5.00
pEC50 (HCV replicon cells; Table 1): < 5.00

CNC(=O)c1c(-c2ccc(F)cc2)nn2cc(N(CCO)S(C)(=O)=O)c(-c3cccc(C(=O)NC(C)(C)c4ccccc4)c3)cc12
pIC50 ([1]; Table 1): 6.60 to 8.70
pEC50 (HCV replicon cells; Table 1): 6.60 to 8.70

CNC(=O)c1c(-c2ccc(F)cc2)oc2ccc(-c3cc(C(=O)NC4(c5ccccn5)CC4)ccc3C)nc12
pIC50 ([1]; Table 1): 6.60 to 8.70
pEC50 (HCV replicon cells; Table 1): 6.60 to 8.70
